Data: patent publication US11083732B2, “Use of negative modulators of GABA receptors containing alpha5 subunits as fast acting antidepressants” (University of Maryland, Baltimore, priority 2014, dated 2021)

Assays:
ΔFosB = assay: FosB and ΔFosB expression after injection; assay type: in vivo, rat
Description: D3. Nestler and colleagues have shown that induction of the transcription factor ΔFosB in D1R-expressing medium spiny neurons in the NAc in response to chronic stress is an important mediator of resilience and may play a role in the antidepressant actions of fluoxetine by changing gene expression and synaptic strength (Perrotti et al., 2004; Lobo et al., 2013; Grueter et al., 2013). It is considered whether alpha5 GABA-NAM injection also affects deltaFosB expression. Control and CRS-susceptible rats receive an injection of L-665, 708. […] Tissue punches are taken from the NAc, area CA1, EC, and PFC and subjected to Western blotting for quantification of deltaFosB levels. Sections are prepared from these same regions and stained for ΔFosB in order to count immunoreactive nuclei with stereological techniques (Vialou et al., 2010). Sections through the ventral striatum are co-stained with an antibody against the D1R, since the expression of ΔFosB in these cells may be particularly important for SSRI actions (Lobo et a/., 2013). Similar to fluoxetine, in specific embodiments in stressed and unstressed animals, alpha5 GABA-NAM affects ΔFosB expression in the NAc and other brain regions, consistent with initial studies (FIG. 5).

[1] = test system: rats subjected to chronic restraint stress; assay: Sucrose preference test (SPT) after chronic restraint stress (CRS); assay type: in vivo, rat; settings: 10 days CRS; L-655,708 0.7 mg/kg i.p.; 24 hrs post-injection; vs pre-stress baseline
Description: MRK-016 rapidly reverses loss of sucrose preference and social interaction behaviors after chronic restraint stress (FIG. 9). […] This persisted for 7 days despite further stress exposure. and in the same animals after an additional week of CRS and 7 days after the injection of MRK-016.
Chronic restraint stress (CRS). Male Sprague Dawley rats (4-5 weeks-old; Harlan Laboratories) were placed in appropriately sized restraint tubes, highly restricting their movement for periods of four hours in a brightly lit lab, every day for ten days during the light phase of their diurnal cycle (Lim et al., 2012).
Sucrose preference test (SPT). Rats were given a choice between two bottles containing tap water or a 1% sucrose solution (Rygula et al., 2006). Testing was conducted overnight (16 hours), including the full duration of their dark phase. Animals were first trained with both bottles while group-housed. For subsequent tests, including during the baseline period, animals were individually housed. Sucrose preference was calculated as amount of the sucrose solution consumed as a percentage of the total amount of liquid consumed.
Drugs/stats. L-655,708 was purchased from Tocris Bioscience (R&D Systems, Minneapolis, Minn.) and prepared at a concentration of 5 mM in 75% saline/25% DMSO. […] This dose is sufficient to occupy about 70% of forebrain binding sites (Atack et al., 2005)
Several hedonic behaviors in rodents are sensitive to chronic stress and are restored by chronic, but not acute, administration of SSRIs, providing one means to screen for potential antidepressant compounds. First, it was determined whether L-655,708 would rapidly (<24 hrs) restore normal hedonic behavior following chronic restraint stress (Watanabe et al., 1992; Lim et al., 2012), consistent with the rapid antidepressant-like actions of ketamine (Li et al., 2011). Baseline measurements were first made of social interaction and sucrose preference, and then 4-5 week old rats were subjected to ten days of CRS. […]

TA-CA1 synapses = assay: Acute slice electrophysiology: fEPSPs at TA-CA1 synapses after in vivo injection; parameters: species or system rat
Method: Acute slice electrophysiology. Standard methods were used to prepare 400-μm-thick transverse hippocampal slices. Dissection and recording saline contained: 124 mM NaCl, 3 mM KCl, 1.25 mM NaH2PO4, 1.5 mM MgSO4, 2.5 mM CaCl2, 26 mM NaHCO3, and 10 mM glucose, bubbled with 95% O2/5% CO2. Slices were then transferred to a submersion-type recording chamber and perfused at 0.5 2 ml/min at 20-22° C. Picrotoxin (100 μM) and CGP52432 (2 μM) were included to block GABAA and GABAB receptors, and the CA3 region was removed with a scalpel. Because TA-CA1 synapses are electrotonically remote from CA1 cell somata, extracellular recording of local field excitatory postsynaptic potentials (fEPSPs) was used. Recording pipettes (3-5 MSΩ) contained extracellular saline and were placed in stratum lacunosum-moleculare (SLM) to record TA-CA1 responses. fEPSPs were amplified 1000×, filtered at 3 kHz, and digitized at 10 kHz. Concentric bipolar tungsten electrodes were placed >500 μm from the […] in SLM for TA afferents. Stimuli (100 μs) were delivered at 0.05 Hz.
As in previous work (Kallarackal et al., 2013), Mg2+-free saline was used to produce a robust NMDAR-mediated component of the fEPSP for quantification of AMPAR-mediated synaptic excitation. 3-5 consecutive responses were averaged and fEPSP slope was calculated over a 1-3 ms window. […] For NMDA responses, DNQX (50 μM) was bath applied for 15 min and the slope was calculated over a 3-5 ms window in the rising phase of the response, 5-10 ms after its initiation. […]
The inventors used extracellular electrophysiological recording of fEPSPs at TA-CA1 synapses in SLM of area CA1 in brain slices prepared from unstressed rats, rats subjected to ten days of CRS and given a vehicle injection 24 hrs earlier, and rats subjected to ten days of CRS and given an L-655,708 injection 24 hrs earlier (0.7 mg/kg, i.p.). These were the same rats used for the behavioral analyses in FIG. 6. fEPSPs were recorded in ACSF lacking added Mg2+ so as to unblock NMDA receptors. […]

rats = assay: Open field test (anxiety); settings: rat, in vivo
Description: C1. One cohort of control rats are given a baseline open field test. One week later, half of the animals receive an injection of L-665,708 or vehicle, followed 24 hrs later by a second open field test in a new arena.

[2] = slices from rats after 10 days CRS, L-655,708 0.7 mg/kg i.p. 24 hrs earlier

CCOC(=O)c1ncn2c1[C@@H]1CCCN1C(=O)c1cc(OC)ccc1-2 [L-655,708, ethyl (13aS)-7-methoxy-9-oxo-11, 12,13,13 a-terahydro-9H-imidazo[1,5-a]pyrrolo[2,1-c] [1,4]benzodiazepine-1-carboxylate]
expression of FosB and ΔFosB (ΔFosB; 24 hrs after injection): No changes were apparent
expression of FosB and ΔFosB in the NAc (ΔFosB; unstressed animals, one hour after injection): increase
sucrose preference [1]: not different from their pre-stress baseline
AMPA:NMDA ratio (TA-CA1 synapses; slices from CRS rats, L-655,708 24 hrs earlier, compared to vehicle-treated CRS animals): significantly higher
AMPAR-mediated signaling at TA-CA1 synapses (slope of AMPAR component of fEPSP) (TA-CA1 synapses; [2]): reversed rapidly
slope of the NMDA component of the fEPSP (TA-CA1 synapses; [2]): no corresponding difference
anxiety in the open field test (rats): no evidence of increased anxiety
